Measurements from patent US10000771B2, “Nuclear targeting sequences” (Yeda Research and Development Co. Ltd., priority 2007, dated 2018).
Ends that are not written are not given here. 2GFP = dimer of GFP proteins

Columns and labels:
Assay type in all cases: cell-based
[1] = system: CHO cells; assay: Fluorescence microscopy of 2GFP chimeras (subcellular localization); settings: 24 hr post transfection, serum-starved
Method: FIGS. 8A-8H are photomicrographs illustrating that SPS, APA, and EPE peptides fused to a 2GFP chimera modify its subcellular localization. CHO cells were grown on cover slips and transfected with 19 amino acid from the kinase insert domain of ERK2 including the SPS region (GFP-SPS) fused to a 2GFP chimera and with the same chimeras with substitution of the Ser to Ala (GFP-APA) or substitution to Glu (GFP-EPE). Twenty-four hr later, the cells were serum-starved for 16 hr, fixed, stained with DAPI and visualized by a fluorescence microscope.
(§1) Immunofluorescence Microscopy. Cells were fixed (30 min in 3% paraformaldehyde in PBS or 10 min with ice-cold methanol), followed by 5-min permeabilization with 0.2% Triton X-100 in PBS (23° C.). The fixed cells were sequentially incubated with the appropriate Abs (45 min) followed by rhodamine-conjugated secondary Abs (45 min) and DAPI. Slides were visualized using a fluorescence microscope (Nikon, Japan) at 400× magnifications.
To validate the general importance of the SPS domain, a 19 amino acid sequence surroundings the SPS or the APA and EPE mutants was fused to a dimer of GFP proteins (2GFP). Cellular distribution of the chimeras was detected in CHO cells 24 hr post transfection of the GFP constructs.

[2] = system: COS7 cells; assay: Subcellular fractionation of 2GFP chimeras
Method: FIG. 9A is an autoradiograph illustrating the subcellular fractionation of transfected SPS, APA, and EPE peptides fused to a 2GFP in COS7 cells. Western blot analysis of aliquots of the fractions were stained with anti GFP Ab to detect the different chimaras, and with anti tubulin and anti c-Jun Abs as markers for the cytoplasmic and nuclear fractions respectively.
(§2) Cellular Fractionation: Transfected COS7 cells were starved (0.1% FBS) for 16 h, after which they were washed with ice-cold PBS, suspended in ice-cold buffer H, and centrifuged (12,000×g, 5 min). Then, the nuclear and cytosolic fractions were isolated as described [H. Rubinfeld, T. Hanoch, R. Seger, J. Biol. Chem. 274, 30349 (1999)]. Briefly, the pellets were suspended in 0.1% NP-40 followed by centrifugation (12,000×g, 5 min). The supernatant, containing the cytosolic fraction, was boiled in sample buffer. The pellet was suspended in extraction buffer (420 mM Nacl, 50 mM β-glycerophosphate, 0.5 mM Na3VO4, 1.5 mM MgCl2, 0.2 mM EDTA, 1 mM DTT, 25% glycerol), incubate on ice for 10 min, sonicated (50 W, 2×7 sec), and centrifuged (12,000×g, 5 min). The supernatant, containing the nuclear fraction, was subjected to Western blot.

[3] = system: endogenous ERKs; assay: Effect of 2GFP chimeras on nuclear translocation of endogenous ERKs; settings: CHO cells overexpressing the chimera, TPA 250 nM, 15 min
Method: FIGS. 10A-10X illustrate the effects of the 2GFP chimeras on the nuclear translocation of endogenous ERKs. CHO cells overexpressing 2GFP, 2GFP-SPS, 2GFP-APA and 2GFP-EPE were serum starved and treated with or without TPA (250 nM, 15 min). Subsequently, the cells were fixed and stain with anti-ERK2 (C-14) Ab and with DAPI.
as §1

[4] = system: CHO cells; assay: Fluorescence microscopy of ERK2 constructs (subcellular localization)
Method: FIGS. 1A-1R are photomicrographs illustrating the role of SPS in the non-regulated accumulation of ERK2 in the nucleus. CHO (FIGS. 1A-F and 1M-R) or COS7 cells (FIGS. 1G-L) were grown on cover slips and transfected with WT-ERK2, or the mutants 244-6A and Δ244-6. Twenty-four hr following transfection, the cells were serum-starved (16 hr), fixed, stained with DAPI and visualized using a fluorescent microscope.
FIGS. 2A-2X are photomicrographs illustrating the role of SPS in the stimulated nuclear translocation of ERK2. CHO cells were grown on cover slips and co-transfected with HA-MEK1 together with either WT-ERK2, 244-6A, or Δ244-6. Twenty-four hr after transfection, the cells were serum starved for 16 hours, treated with TPA (250 nM, 15 min), except in WT-10 where the cells were treated with 10 nM TPA for 15 min. After treatments the cells were fixed and stained with either anti-HA Ab or DAPI.
FIGS. 5A-5F are photomicrographs illustrating that mutating the Ser residues in the SPS to Glu induces the nuclear accumulation of ERK2. CHO cells were grown on cover slips and transfected with WT-GFP-ERK2 (WT), APA-GFP-ERK2 (APA), or EPE-GFP-ERK2 (EPE). […]
Immunofluorescence Microscopy. […] Slides were visualized using a fluorescence microscope (Nikon, Japan) at 400× magnifications. […]

[5] = system: TEY motif of ERK2; assay: TEY phosphorylation by Western blot with anti pTEY-ERK; settings: COS7 cells, following EGF stimulation
Method: FIG. […] ERK2 phosphorylation was detected by Western blot analysis using anti-phosphoTEY-ERK (αpTEY), and anti ERK Abs (αgERK).
Western Blotting: Cell extract was collected as described above, and aliquots from each sample (20 μg) were separated by 10% SDS-PAGE followed by Western blotting with the appropriate antibodies. The blots were developed with alkaline phosphatase or horseradish peroxidase-conjugated anti-mouse’, anti-rabbit and anti-goat Fab Abs.

[6] = system: COS7 cells; assay: Subcellular fractionation of GFP-ERK2 constructs; settings: 48 hr after transfection, serum-starved
Method: FIG. 6 is an autoradiograph illustrating the subcellular fractionation of WT-GFP-ERK2 (WT), APA-GFP-ERK2 (APA), or EPE-GFP-ERK2 (EPE). COS7 cells were grown in 10 cm plates and transfected with the above ERK2 constructs. Twenty-four hr after transfection the cells were serum-starved for 16 hr and subjected to cellular fractionation as described under materials and Methods. Western blot analysis of aliquots of the fractions were stained with anti GFP Ab to detect the ERK2 and its mutant, and with anti tubulin and anti c-Jun Abs as markers for the cytoplasmic and nuclear fractions respectively.
as §2, with “The supernatant, containing the nuclear fraction, was subjected to Western blot.” left out

Substance | cellular distribution [1] | localized in the nucleus [2] [%] | inhibition of TPA-induced translocation of endogenous ERKs [3] | localization upon TPA stimulation ([4]; CHO cells cotransfected with MEK1, TPA 250 nM) | localization at equivalent TEY phosphorylation levels ([4]; CHO cells cotransfected with MEK1, TPA 10 nM for WT-ERK2 and 250 nM for the mutants) | time of peak TEY phosphorylation [5] [min] | localized in the nucleus [6]
2GFP-SPS: 2GFP with the 19 amino acid stretch containing the SPS of ERK2 (SEQ ID NO: 6) fused to its C terminus (2GFP-LDQLNHILGILGSPSQEDL) | localized throughout the cell | 15 | inhibited | – | – | – | –
WT-ERK2: wild-type ERK2 fused to GFP, prepared in pEGFP C1 [reference compound] | – | – | – | translocated into the nucleus upon TPA stimulation | localized to the nucleus | 5 | about 75%
